Experimental data from the OligoGym collection.
Several values for one entry are separate records, joined by “and”; a condition that tells them apart may be missing. Identical values can stand only once. After the bases stand the sugars from the 5' end (letter, count) and the backbone: PS all phosphorothioate, else s phosphorothioate and o phosphodiester by linkage. Methylation of C is not given here. e = 2'-O-(2-methoxyethyl) (MOE); k = constrained ethyl (cEt); d = 2'-deoxy (DNA)

Target: IRF4
Settings: ASO

Row | Sequence | target mRNA inhibition (SK-MEL-28, 4 µM) [%] | target mRNA inhibition (MM.1R, 1 µM) | also measured
1 | GCGAAGAATTTTAGCA (sugars k3 d10 k3, PS) | 12 | – | –
2 | GCGCAAGTCTACAGCC (sugars k3 d10 k3, PS) | -20 | – | –
3 | GCGCGGAGGGCAGGCG (sugars k3 d10 k3, PS) | – | -32% | –
4 | GCGGACGCACGGAGAG (sugars k3 d10 k3, PS) | – | -9% | –
5 | GCGGAGGTTCCTTGAG (sugars k3 d10 k3, PS) | 44 | – | –
6 | GCGGGCACAGCCGTCC (sugars k3 d10 k3, PS) | – | -21% | –
7 | GCTAAACCCAAAATAC (sugars k3 d10 k3, PS) | 4 | – | –
8 | GCTAAACTCCTAAGTA (sugars k3 d10 k3, PS) | 30 | – | –
9 | GCTAAAGAACACTGCT (sugars k3 d10 k3, PS) | 3 | – | –
10 | GCTACAAAGAGCACTG (sugars k3 d10 k3, PS) | 63 | – | –
11 | GCTATCAGGATCTCAA (sugars k3 d10 k3, PS) | 38 | – | –
12 | GCTCACCGCGCTCATG (sugars k3 d10 k3, PS) | 48 | – | –
13 | GCTCAGCATGCAAGCC (sugars k3 d10 k3, PS) | 0 | – | –
14 | GCTCATGCCGAACTCT (sugars k4 d8 k4, PS) | 30 | – | –
15 | GCTCATGTTTTTTGAC (sugars k3 d10 k3, PS) | 56 | – | –
16 | GCTCATTTCACTGTAG (sugars k3 d10 k3, PS) | 64 | – | –
17 | GCTGCCACTGGTAACT (sugars k3 d10 k3, PS) | 26 | – | –
18 | GCTGTTTATTTCCTAC (sugars k3 d10 k3, PS) | 66 | – | –
19 | GCTTGAGGTTTTCCTA (sugars k3 d10 k3, PS) | 77 | – | –
20 | GGAAAGAGCTTTGGTG (sugars k3 d10 k3, PS) | 12 | – | –
21 | GGAAATACGACAACTT (sugars k3 d10 k3, PS) | 63 | – | –
22 | GGAACGAAGAGCAGGG (sugars k3 d10 k3, PS) | – | 12% | –
23 | GGAACTCCCGAGGGCA (sugars k3 d10 k3, PS) | – | 13% | –

Row | Sequence | target mRNA inhibition (SK-MEL-28, 4 µM) [%] | target mRNA inhibition (MM.1R, 1 µM) | also measured
24 | GGAAGTTTACACTGGA (sugars e1 k2 d9 k2 e2, PS) | – | 55% | target mRNA inhibition (H929, 0.04 µM): 38% and 36%; target mRNA inhibition (KMS11, 0.2 µM): 75% and 80%; target mRNA inhibition (MM.1R, 0.074 µM): 13%; target mRNA inhibition (MM.1R, 0.222 µM): 35%; target mRNA inhibition (MM.1R, 0.666 µM): 66%; target mRNA inhibition (MM.1R, 2 µM): 87%
25 | GGAAGTTTACACTGGA (sugars k3 d9 k3 e1, PS) | – | 78% | target mRNA inhibition (MM.1R, 0.074 µM): 20%; target mRNA inhibition (MM.1R, 0.222 µM): 45%; target mRNA inhibition (MM.1R, 0.666 µM): 77%; target mRNA inhibition (MM.1R, 2 µM): 91%
26 | GGAAGTTTACACTGGA (sugars kkdddddddddekeke, PS) | – | 64% | target mRNA inhibition (MM.1R, 0.074 µM): 4%; target mRNA inhibition (MM.1R, 0.222 µM): 15%; target mRNA inhibition (MM.1R, 0.666 µM): 40%; target mRNA inhibition (MM.1R, 2 µM): 64%
27 | GGAAGTTTACACTGGA (sugars kkdddddddddkdkdk, PS) | – | 24% | –
28 | GGAAGTTTACACTGGA (sugars kkdddddddddkekek, PS) | – | 47% | –
29 | GGAAGTTTACACTGGA (sugars kkkdddddddddkeke, PS) | – | 78% | target mRNA inhibition (MM.1R, 0.074 µM): 22%; target mRNA inhibition (MM.1R, 0.222 µM): 46%; target mRNA inhibition (MM.1R, 0.666 µM): 74%; target mRNA inhibition (MM.1R, 2 µM): 91%
30 | GGAAGTTTACACTGGA (sugars kkkddddddddkekek, PS) | – | 43% | –
31 | GGACACTTTTAGAGAG (sugars k3 d10 k3, PS) | 62 | – | –
32 | GGACATTGGTACGGGA (sugars k3 d10 k3, PS) | 50 | – | –
33 | GGACCACATCTAATCC (sugars k3 d10 k3, PS) | – | -12% | –
34 | GGACTAAGGACAGCTG (sugars k3 d10 k3, PS) | – | 13% | –
35 | GGACTCCGGGAGCCTG (sugars k3 d10 k3, PS) | – | -8% | –
36 | GGAGACACATACATTT (sugars k3 d10 k3, PS) | 22 | – | –
37 | GGAGATACTTGTACTG (sugars k3 d10 k3, PS) | 66 | 55% | target mRNA inhibition (MM.1R, 0.0625 µM): 2%; target mRNA inhibition (MM.1R, 0.074 µM): 16%; target mRNA inhibition (MM.1R, 0.222 µM): 25%; target mRNA inhibition (MM.1R, 0.25 µM): 26%; target mRNA inhibition (MM.1R, 0.666 µM): 48%; target mRNA inhibition (MM.1R, 2 µM): 77%; target mRNA inhibition (MM.1R, 4 µM): 87%
38 | GGAGTGATCTCTGTGG (sugars k3 d10 k3, PS) | 68 | – | –
39 | GGAGTGCAGGAGAGGC (sugars k3 d10 k3, PS) | 16 | – | –
40 | GGATAGATCTGTGGTA (sugars k3 d10 k3, PS) | 49 | – | –
41 | GGATTTCCGGGTGTGG (sugars k3 d10 k3, PS) | 61 | – | –
42 | GGCAACAGTTCAAGTA (sugars k3 d10 k3, PS) | 57 | – | –
43 | GGCACAATTCTCTGAG (sugars k3 d10 k3, PS) | 43 | – | –
44 | GGCACATCAATGTTTT (sugars k3 d10 k3, PS) | – | 18% and 14% | –
45 | GGCACATCAATGTTTT (sugars kdddddddddkekeke, PS) | – | 9% and 6% | –
